From patent US12290535B2, “Langerin+ cell targeting” (Max-Planck-Gesellschaft zur Förderung der Wissenschaften …, priority 2018, dated 2025) come the findings set out here.

Holding throughout (assay type): binding
Assay [1] addresses T1, DC-SIGN CRD (Homo sapiens, UniProt Q9NNX6).
T1 construct: residues 205 to 404; TEV site (C); StreptagII (C); made in house; host or cells: E. coli BL21* (DE3)
T1 sequence (Q9NNX6 250-404): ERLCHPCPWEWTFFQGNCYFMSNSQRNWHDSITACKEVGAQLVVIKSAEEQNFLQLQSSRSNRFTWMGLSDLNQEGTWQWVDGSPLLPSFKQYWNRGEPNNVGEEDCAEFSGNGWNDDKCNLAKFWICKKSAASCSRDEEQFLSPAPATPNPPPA
The assay can be described thus: 19F R2-filtered NMR reporter displacement assay transferred to DC-SIGN. Conditions: 19F R2-filtered NMR, DC-SIGN CRD 50 μM, pH 7.0, 25° C. On the procedure:
(§1) Langerin and DC-SIGN carbohydrate recognition domain. Expression and purification were conducted as previously published. Briefly, the monomeric ^15N-labeled Langerin and DC-SIGN carbohydrate recognition domains (CRDs) were expressed insolubly in E. coli BL21* (DE3) (Invitrogen). Following enzymatic cell lysis, inclusion bodies were harvested and subsequently solubilized. The sample was centrifuged and the Langerin and DC-SIGN CRDs were refolded overnight via rapid dilution. Next, the sample was dialyzed overnight, centrifuged and purified via StrepTactin affinity chromatography (Iba). After an additional dialysis step overnight, the sample was centrifuged and the buffer was exchanged to 25 mM HEPES with 150 mM NaCl at pH 7.0 using 7 kDa size-exclusion desalting columns (Thermo Scientific) for ^19F R2-filtered and ^15N HSQC NMR experiments. The concentration of Langerin and DC-SIGN CRDs was determined via UV spectroscopy (A280, 0.1%=3.19 and A280, 0.1%=2.98). Purity and monodispersity of Langerin and DC-SIGN CRD samples were analyzed via SDS PAGE and DLS.
(§2) General remarks. ^19F R2-filtered NMR experiments were conducted on a PremiumCompact 600 MHz spectrometer (Agilent). […] Apparent relaxation rates R2,obs for the reporter ligand were determined using the CPMG pulse sequence as previously published (Wamhoff, E. C. et al. (19)F Nmr-Guided Design of Glycomimetic Langerin Ligands. ACS Chem Biol, 11, 2407-13 (2016): Carr, H. Y. & Purcell, E. M. Effects of Diffusion on Free Precession in Nuclear Magnetic Resonance Experiments. Phys Rev, 94, 630-638 (1954); Meiboom, S. & Gill, D. Modified Spin-Echo Method for Measuring Nuclear Relaxation Times. Rev Sci Instrum 29, 688-691 (1958)).
(§3) Assay development for DC-SIGN. […] Briefly, the KD value and the relaxation rate in bound state R2,b were determined at five concentrations [L]T of reporter ligand 24 in three independent titration experiments. […]
(§4) Ki determination. Ki values were determined as previously published for Langerin (Wamhoff, E. C. et al. (19)F NMR-Guided Design of Glycomimetic Langerin Ligands. ACS Chem Biol 11, 2407-13 (2016)). […]

Assay [2] deals with DC-SIGN CRD. The assay is described as above. The note with it: Ki Langerin compared to Ki DC-SIGN. On the procedure:
as §1, §2, §3, §4

The target in another assay is T2, Langerin ECD (Homo sapiens, UniProt Q9UJ71, V278A).
T2 construct: residues 148 to 328; TEV site (C); StreptagII (C); made in house; host or cells: E. coli BL21* (DE3)
In words: 19F R2-filtered NMR reporter displacement assay (Ki determination). The note with it: Langerin ECD 50 μM, pH 7.8, 25° C. The protocol: Langerin extracellular domain. Expression and purification were conducted as previously published (Wamhoff, E. C. et al. (19)F Nmr-Guided Design of Glycomimetic Langerin Ligands. ACS Chem Biol, 11, 2407-13 (2016)). Briefly, the trimeric Langerin extracellular domain (ECD) was expressed insolubly in E. coli BL21* (DE3) (Invitrogen). Following enzymatic cell lysis, inclusion bodies were harvested and subsequently solubilized. The sample was centrifuged and the Langerin ECD was refolded overnight via rapid dilution. Next, the sample was dialyzed overnight, centrifuged and purified via mannan-agarose affinity chromatography (Sigma Aldrich). For ^19F R2-filtered NMR and lipid-enzyme-linked lectin assay (Lipid-ELLA) experiments, the buffer was exchanged to 25 mM Tris with 150 mM NaCl and 5 mM CaCl2 at pH 7.8 using 7 kDa size-exclusion desalting columns (Thermo Scientific). For STD NMR experiments, Langerin ECD samples were dialyzed five times for at least 8 h against H2O. Subsequently, the H2O was removed via lyophilization and the residue was stored at −80° C. Prior to STD NMR experiments, the Langerin ECD was dissolved in 25 mM Tris-d11 (Eurisotope) with 100% D2O, 150 mM NaCl and 5 mM CaCl2 at pH 7. The concentration of Langerin ECD was determined via UV spectroscopy (A280, 0.1%=2.45). Purity and monodispersity of Langerin ECD samples were analyzed via SDS PAGE and DLS.
General remarks. ^19F R2-filtered NMR experiments were conducted on a PremiumCompact 600 MHz spectrometer (Agilent). Spectra were processed in MestReNova and data analysis was performed with OriginPro (Mestrelab Research. Mestrenova. 11.0.2. (2016); OriginLab. Originpro. 9.1. (2015)). Experiments with the Langerin ECD were performed at a receptor concentration of 50 μM in 25 mM Tris with 10% D2O, 150 mM NaCl and 5 mM CaCl2 at pH 7.8 and 25° C. Experiments with the DC-SIGN CRD were performed at a receptor concentration of 50 μM in 25 mM HEPES with 10% D2O, 150 mM NaCl and 5 mM CaCl2 at pH 7.0 and 25° C. TFA served as an internal reference at a concentration of 50 μM. Apparent relaxation rates R2,obs for the reporter ligand were determined using the CPMG pulse sequence as previously published (Wamhoff, E. C. et al. (19)F Nmr-Guided Design of Glycomimetic Langerin Ligands. ACS Chem Biol, 11, 2407-13 (2016): Carr, H. Y. & Purcell, E. M. Effects of Diffusion on Free Precession in Nuclear Magnetic Resonance Experiments. Phys Rev, 94, 630-638 (1954); Meiboom, S. & Gill, D. Modified Spin-Echo Method for Measuring Nuclear Relaxation Times. Rev Sci Instrum 29, 688-691 (1958)).
Ki determination. Ki values were determined as previously published for Langerin (Wamhoff, E. C. et al. (19)F NMR-Guided Design of Glycomimetic Langerin Ligands. ACS Chem Biol 11, 2407-13 (2016)). Briefly, titration experiments were conducted at a concentration of 0.1 mM of reporter ligand 24 at five competitor concentrations [I]T. Samples were prepared via serial dilution. For the acids GlcNS, GlcNAc-6-OS and GlcNS-6-OS the pH values were monitored and adjusted to 7.8 if necessary.

T2 sequence (Q9UJ71 148-328 V278A): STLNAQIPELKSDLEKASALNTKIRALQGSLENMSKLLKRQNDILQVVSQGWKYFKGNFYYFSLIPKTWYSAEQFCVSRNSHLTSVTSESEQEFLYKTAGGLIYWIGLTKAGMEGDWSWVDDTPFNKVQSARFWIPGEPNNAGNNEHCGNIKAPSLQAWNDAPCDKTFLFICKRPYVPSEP

In the case of `CC(=O)NCCO[C@H]1O[C@H](CO)[C@@H](O)[C@H](O)[C@@H]1O` [Man analog 21], the Ki on DC-SIGN CRD [1] is 2.7 ± 0.3 mM; at Langerin ECD, 10 ± 1 mM. Besides, the “specificity for DC-SIGN over Langerin” value with DC-SIGN CRD [2] is given as 3.7 fold.
